According to patent publication US20240025922A1, “TETRAHYDROPYRIDO[3,4-d]PYRIMIDINES AS HPK1 INHIBITORS” (Merck Patent GmbH, priority 2022, published 2024):

Key:
[1] = molecular target: HPK1 (SLP76 phosphorylation at Ser376 in Jurkat and EL-4 cells) (Homo sapiens, UniProt Q92918); format: cell-based; conditions: αCD3/αCD28 Dynabeads stimulated cells, pSLP76 (Ser376) detection; read-out: HPK1 pSLP76 IC50
Method in brief: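 Phospho-SLP76 (Ser376) in lysates measured by AlphaLISA for human Jurkat and by 19 h HTRF for mouse EL-4, giving % inhibition and IC50. Compounds applied 60 min before αCD3/αCD28 bead stimulation at 37 °C, lasting 15 min (Jurkat) or 30 min (EL-4).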

[2] = molecular target: full-length human HPK1 (MAP4K1) (Homo sapiens (Human), UniProt Q92918); assay: HPK1 Kinase Assay (Biochemical Assay), ADP-Glo; conditions: GST-HPK1 3.2 nM, 10 μM ATP, MBP substrate, read-out: HPK1 enzymatic IC50
Method in brief: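 ADP-Glo luminescence after a 120-min kinase reaction gave percent inhibition and IC50. The enzyme was Sf21-expressed N-terminal GST full-length human HPK1 at 3.2 nM in HEPES pH 7.5 buffer with MgCl2, DTT, Brij-35 and BSA.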

Sequence of HPK1 (SLP76 phosphorylation at Ser376 in Jurkat and EL-4 cells) (Q92918 whole entry, looked up): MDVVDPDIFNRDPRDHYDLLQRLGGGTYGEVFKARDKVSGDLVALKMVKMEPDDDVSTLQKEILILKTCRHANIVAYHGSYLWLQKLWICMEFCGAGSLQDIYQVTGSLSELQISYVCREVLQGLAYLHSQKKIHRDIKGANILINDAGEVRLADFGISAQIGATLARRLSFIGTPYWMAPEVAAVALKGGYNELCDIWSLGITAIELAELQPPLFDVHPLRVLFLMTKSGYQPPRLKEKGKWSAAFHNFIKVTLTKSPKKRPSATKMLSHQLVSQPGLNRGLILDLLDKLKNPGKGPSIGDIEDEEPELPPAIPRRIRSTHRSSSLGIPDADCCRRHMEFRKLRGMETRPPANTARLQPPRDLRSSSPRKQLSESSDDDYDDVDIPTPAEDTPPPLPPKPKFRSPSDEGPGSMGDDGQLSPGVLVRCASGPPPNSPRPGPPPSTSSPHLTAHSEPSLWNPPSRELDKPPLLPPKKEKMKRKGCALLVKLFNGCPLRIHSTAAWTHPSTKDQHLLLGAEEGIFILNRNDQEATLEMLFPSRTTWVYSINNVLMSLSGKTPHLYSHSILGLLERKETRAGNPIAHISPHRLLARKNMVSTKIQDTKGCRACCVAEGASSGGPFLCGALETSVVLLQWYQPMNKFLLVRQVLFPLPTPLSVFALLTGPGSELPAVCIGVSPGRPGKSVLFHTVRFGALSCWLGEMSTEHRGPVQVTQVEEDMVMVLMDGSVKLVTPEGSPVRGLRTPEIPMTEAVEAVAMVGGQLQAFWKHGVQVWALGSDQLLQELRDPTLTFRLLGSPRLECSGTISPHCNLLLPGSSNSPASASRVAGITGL
Sequence of full-length human HPK1 (MAP4K1) (Q92918 whole entry): as the sequence (Q92918 whole entry, looked up) above

Cc1c(N2CCc3cnc(Nc4ccc(CO)cc4)nc3C2)cnc2c1NCCO2 [Example 133, {4-[(7-{8-methyl-1H,2H,3H-pyrido[2,3-b][1,4]oxazin-7-yl}-5H,6H,7H,8H-pyrido[3,4-d]pyrimidin-2-yl)amino]phenyl}methanol]
IC50 [1]: < 500 nM | IC50 [2]: < 100 nM

COCCS(=O)(=O)Cc1ccc(Nc2ncc3c(n2)CN(c2cnc4c(c2C)NCCO4)CC3)cc1 [Example 135, N-{4-[(2-methoxyethanesulfonyl)methyl]phenyl}-7-{8-methyl-1H,2H,3H-pyrido[2,3-b][1,4]oxazin-7-yl}-5H,6H,7H,8H-pyrido[3,4-d]pyrimidin-2-amine]
IC50 [1]: < 500 nM | IC50 [2]: < 100 nM

Cc1c(N2CCc3cnc(Nc4ccc(CS(C)(=O)=O)cc4)nc3C2)cnc2c(F)c[nH]c12 [Example 138, 7-{3-fluoro-7-methyl-1H-pyrrolo[3,2-b]pyridin-6-yl}-N-[4-(methanesulfonylmethyl)phenyl]-5H,6H,7H,8H-pyrido[3,4-d]pyrimidin-2-amine]
IC50 [1]: < 500 nM | IC50 [2]: < 100 nM

Cc1c(N2CCc3cnc(Nc4ccc(CS(C)(=O)=O)cc4)nc3C2)cnc2c1NCC1(CC1)O2 [Example 139, N-[4-(methanesulfonylmethyl)phenyl]-7-{8′-methyl-1′,2′-dihydrospiro[cyclopropane-1,3′-pyrido[2,3-b][1,4]oxazin]-7′-yl}-5H,6H,7H,8H-pyrido[3,4-d]pyrimidin-2-amine]
IC50 [1]: < 500 nM | IC50 [2]: < 100 nM

Cc1c(N2CCc3cnc(Nc4cc5n(n4)CC(=O)N(CC(F)F)CC5)cc3C2)cnc2c1NCCO2 [Example 140, 6-(2,2-difluoroethyl)-2-[(6-{8-methyl-1H,2H,3H-pyrido[2,3-b][1,4]oxazin-7-yl}-5,6,7,8-tetrahydro-2,6-naphthyridin-3-yl)amino]-4H,5H,6H,7H,8H-pyrazolo[1,5-d][1,4]diazepin-7-one]
IC50 [1]: < 500 nM | IC50 [2]: < 100 nM

Cc1c(N2CCc3cnc(Nc4ccc(CS(C)(=O)=O)cc4)nc3C2)cnc2c1NCCC2=O [Example 142, 7-(2-{[4-(methanesulfonylmethyl)phenyl]amino}-5H,6H,7H,8H-pyrido[3,4-d]pyrimidin-7-yl)-8-methyl-1,2,3,4-tetrahydro-1,5-naphthyridin-4-one]
IC50 [1]: > 1000 nM | IC50 [2]: < 100 nM

Cc1c(N2CCc3cnc(Nc4ccc(CS(C)(=O)=O)cc4)nc3C2)cnc2c1NCCC2O (stereo not drawn) [Example 143, 7-(2-{[4-(methanesulfonylmethyl)phenyl]amino}-5H,6H,7H,8H-pyrido[3,4-d]pyrimidin-7-yl)-8-methyl-1,2,3,4-tetrahydro-1,5-naphthyridin-4-ol]
IC50 [1]: < 500 nM | IC50 [2]: < 100 nM

Cc1c(N2CCc3cnc(Nc4ccc(Cn5cncn5)cc4)cc3C2)cnc2c1NCCO2 [Example 144, 6-{8-methyl-1H,2H,3H-pyrido[2,3-b][1,4]oxazin-7-yl}-N-{4-[(1H-1,2,4-triazol-1-yl)methyl]phenyl}-5,6,7,8-tetrahydro-2,6-naphthyridin-3-amine]
IC50 [1]: < 500 nM | IC50 [2]: < 100 nM

CCc1c(N2CCc3cnc(Nc4ccc(CS(C)(=O)=O)cc4)nc3C2)cnc2c1NCCO2 [Example 145, 7-{8-ethyl-1H,2H,3H-pyrido[2,3-b][1,4]oxazin-7-yl}-N-[4-(methanesulfonylmethyl)phenyl]-5H,6H,7H,8H-pyrido[3,4-d]pyrimidin-2-amine]
IC50 [1]: < 500 nM | IC50 [2]: < 100 nM

COCCOCCS(=O)(=O)c1ccc(Nc2ncc3c(n2)CN(c2cnc4c(c2C)NCCO4)CC3)cc1 [Example 147, N-{4-[2-(2-methoxyethoxy)ethanesulfonyl]phenyl}-7-{8-methyl-1H,2H,3H-pyrido[2,3-b][1,4]oxazin-7-yl}-5H,6H,7H,8H-pyrido[3,4-d]pyrimidin-2-amine]
IC50 [1]: < 500 nM | IC50 [2]: < 100 nM

Cc1c(N2CCc3cnc(Nc4ccc(CC#N)cc4)nc3C2)cnc2c1NCCO2 [Example 148, 2-{4-[(7-{8-methyl-1H,2H,3H-pyrido[2,3-b][1,4]oxazin-7-yl}-5H,6H,7H,8H-pyrido[3,4-d]pyrimidin-2-yl)amino]phenyl}acetonitrile; formic acid]
IC50 [1]: < 500 nM | IC50 [2]: < 100 nM

Cc1c(N2CCc3cnc(Nc4ccc(CS(=O)(=O)N(C)C)cc4)cc3C2)cnc2c1NCCO2 [Example 150, N,N-dimethyl-1-{4-[(6-{8-methyl-1H,2H,3H-pyrido[2,3-b][1,4]oxazin-7-yl}-5,6,7,8-tetrahydro-2,6-naphthyridin-3-yl)amino]phenyl}methanesulfonamide]
IC50 [1]: < 500 nM | IC50 [2]: < 100 nM

Cc1c(N2CCc3cnc(Nc4ccc(CC(=O)N5CC(F)(F)C5)cc4)nc3C2)cnc2c1NCCO2 [Example 151, 1-(3,3-difluoroazetidin-1-yl)-2-{4-[(7-{8-methyl-1H,2H,3H-pyrido[2,3-b][1,4]oxazin-7-yl}-5H,6H,7H,8H-pyrido[3,4-d]pyrimidin-2-yl)amino]phenyl}ethan-1-one]
IC50 [1]: < 500 nM | IC50 [2]: < 100 nM

Cc1c(N2Cc3nc(Nc4ccc(CS(C)(=O)=O)cc4)ncc3C(F)(F)C2)cnc2c1NCCO2 [Example 152, 5,5-difluoro-N-[4-(methanesulfonylmethyl)phenyl]-7-{8-methyl-1H,2H,3H-pyrido[2,3-b][1,4]oxazin-7-yl}-5H,6H,7H,8H-pyrido[3,4-d]pyrimidin-2-amine]
IC50 [1]: < 500 nM | IC50 [2]: < 100 nM

COCCN1CCc2cc(Nc3cc4c(cn3)CCN(c3cnc5c(c3C)NCCO5)C4)nn2CC1=O [Example 153, 6-(2-methoxyethyl)-2-[(6-{8-methyl-1H,2H,3H-pyrido[2,3-b][1,4]oxazin-7-yl}-5,6,7,8-tetrahydro-2,6-naphthyridin-3-yl)amino]-4H,5H,6H,7H,8H-pyrazolo[1,5-d][1,4]diazepin-7-one]
IC50 [1]: < 500 nM | IC50 [2]: < 100 nM

Cc1c(N2CCc3cnc(Nc4ccc(CS(=O)(=O)CCN(C)C)cc4)nc3C2)cnc2c1NCCO2 [Example 154, N-(4-{[2-(dimethylamino)ethanesulfonyl]methyl}phenyl)-7-{8-methyl-1H,2H,3H-pyrido[2,3-b][1,4]oxazin-7-yl}-5H,6H,7H,8H-pyrido[3,4-d]pyrimidin-2-amine]
IC50 [1]: < 500 nM | IC50 [2]: < 100 nM

Cc1c(N2CCc3cnc(Nc4ccc(CC(=O)N5CC(F)C5)cc4)nc3C2)cnc2c1NCCO2 [Example 155, 1-(3-fluoroazetidin-1-yl)-2-{4-[(7-{8-methyl-1H,2H,3H-pyrido[2,3-b][1,4]oxazin-7-yl}-5H,6H,7H,8H-pyrido[3,4-d]pyrimidin-2-yl)amino]phenyl}ethan-1-one]
IC50 [1]: < 500 nM | IC50 [2]: < 100 nM

Cc1c(N2CCc3cnc(Nc4ccc5c(c4)CN(C)S(=O)(=O)C5)nc3C2)cnc2c1NCCO2 [Example 156, 3-methyl-6-[(7-{8-methyl-1H,2H,3H-pyrido[2,3-b][1,4]oxazin-7-yl}-5H,6H,7H,8H-pyrido[3,4-d]pyrimidin-2-yl)amino]-3,4-dihydro-1H-2?6,3-benzothiazine-2,2-dione]
IC50 [1]: < 500 nM | IC50 [2]: < 100 nM

Cc1c(N2CCc3cnc(Nc4ccc(CCS(C)(=O)=O)cc4)nc3C2)cnc2c1NCCO2 [Example 161, N-[4-(2-methanesulfonylethyl)phenyl]-7-{8-methyl-1H,2H,3H-pyrido[2,3-b][1,4]oxazin-7-yl}-5H,6H,7H,8H-pyrido[3,4-d]pyrimidin-2-amine]
IC50 [1]: < 500 nM | IC50 [2]: < 100 nM

COCCOCC(=O)Nc1ccc(Nc2ncc3c(n2)CN(c2cnc4c(c2C)NCCO4)CC3)cc1C [Example 162, 2-(2-methoxyethoxy)-N-{2-methyl-4-[(7-{8-methyl-1H,2H,3H-pyrido[2,3-b][1,4]oxazin-7-yl}-5H,6H,7H,8H-pyrido[3,4-d]pyrimidin-2-yl)amino]phenyl}acetamide]
IC50 [1]: < 500 nM | IC50 [2]: < 100 nM

Cc1c(N2CCc3cnc(Nc4ccc(CC(=O)N5CCC5)cc4)nc3C2)cnc2c1NCCO2 [Example 163, 1-(azetidin-1-yl)-2-(4-((7-(8-methyl-2,3-dihydro-1H-pyrido[2,3-b][1,4]oxazin-7-yl)-5,6,7,8-tetrahydropyrido[3,4-d]pyrimidin-2-yl)amino)phenyl)ethan-1-one]
IC50 [1]: < 500 nM | IC50 [2]: < 100 nM

Cc1c(N2CCc3cnc(Nc4ccc(CC(=O)N5CC6(COC6)C5)cc4)nc3C2)cnc2c1NCCO2 [Example 164, 2-{4-[(7-{8-methyl-1H,2H,3H-pyrido[2,3-b][1,4]oxazin-7-yl}-5H,6H,7H,8H-pyrido[3,4-d]pyrimidin-2-yl)amino]phenyl}-1-{2-oxa-6-azaspiro[3.3]heptan-6-yl}ethan-1-one]
IC50 [1]: < 500 nM | IC50 [2]: < 100 nM

Cc1c(N2CCc3cnc(Nc4ccc(CC(=O)N5CC(N6CCOCC6)C5)cc4)nc3C2)cnc2c1NCCO2 [Example 165, 2-{4-[(7-{8-methyl-1H,2H,3H-pyrido[2,3-b][1,4]oxazin-7-yl}-5H,6H,7H,8H-pyrido[3,4-d]pyrimidin-2-yl)amino]phenyl}-1-[3-(morpholin-4-yl)azetidin-1-yl]ethan-1-one]
IC50 [1]: < 500 nM | IC50 [2]: < 100 nM

Cc1c(N2CCc3cnc(Nc4cccc(CS(C)(=N)=O)c4)nc3C2)cnc2c1NCCO2 (stereo not drawn) [Example 168, imino(methyl)(3-((7-(8-methyl-2,3-dihydro-1H-pyrido[2,3-b][1,4]oxazin-7-yl)-5,6,7,8-tetrahydropyrido[3,4-d]pyrimidin-2-yl)amino)benzyl)-16-sulfanone]
IC50 [1]: < 500 nM | IC50 [2]: < 100 nM
